We go through one compound from patent US20180050993A1, “NOVEL FLUORINATED DERIVATIVES AS EGFR INHIBITORS USEFUL FOR TREATING CANCERS” (Trillium Therapeutics Inc., priority 2015, published 2018).

Molecules are shown by their SMILES. Counter-ions that a name gives are not always drawn. Like-named read-outs stand apart in the source and are kept apart here.

For one data set, the system named is KM12. The data set is described as follows: NCI screening panel, growth %. Format: cell-based, human. To be noted: Colon. On the procedure:
(§1) After 24 h, two plates of each cell line are fixed in situ with TCA, to represent a measurement of the cell population for each cell line at the time of drug addition (Tz). Experimental drugs are solubilised in dimethyl sulfoxide at 400-fold the desired final maximum test concentration and stored frozen prior to use. At the time of drug addition, an aliquot of frozen concentrate is thawed and diluted to twice the desired final maximum test concentration with complete medium containing 50 μg/ml gentamicin. Additional four, 10-fold or log serial dilutions are made to provide a total of five drug concentrations plus control. Aliquots of 100 μl of these different drug dilutions are added to the appropriate microtiter wells already containing 100 μl of medium, resulting in the required final drug concentrations.
(§2) Following drug addition, the plates are incubated for an additional 48 h at 37° C., 5% CO2, 95% air, and 100% relative humidity. For adherent cells, the assay is terminated by the addition of cold TCA (trichloroacetic acid). Cells are fixed in situ by the gentle addition of 50 μl of cold 50% (w/v) TCA (final concentration, 10% TCA) and incubated for 60 minutes at 4° C. The supernatant is discarded, and the plates are washed five times with tap water and air dried. Sulforhodamine B (SRB) solution (100 μl) at 0.4% (w/v) in 1% acetic acid is added to each well, and plates are incubated for 10 minutes at room temperature. After staining, unbound dye is removed by washing five times with 1% acetic acid and the plates are air dried. Bound stain is subsequently solubilised with 10 mM trizma base, and the absorbance is read on an automated plate reader at a wavelength of 515 nm. For suspension cells, the methodology is the same except that the assay is terminated by fixing settled cells at the bottom of the wells by gently adding 50 μl of 80% TCA (final concentration, 16% TCA). Using the seven absorbance measurements [time zero, […], control growth, (C), and test growth in the presence of drug at the five concentration levels (Ti)], the percentage growth is calculated at each of the drug concentration levels. Percentage growth inhibition is calculated as: [(Ti−Tz)/(C−Tz)]×100 for concentrations in which Ti>/=Tz and [(Ti−Tz)/Tz]×100 for concentrations in which Ti<Tz.
(§3) Three dose response parameters are calculated for each experimental agent. […] The drug concentration resulting in total growth inhibition (TGI) is calculated from Ti=Tz. […] Values are calculated for each of these three parameters if the level of activity is reached. However, if the effect is not reached or is exceeded, the value for that parameter is expressed as greater or less than the maximum or minimum concentration tested.

A further data set has as its system PC-3. The data set is described as follows: NCI screening panel, growth %. The class given is cell-based, human. To be noted: Prostate. On the procedure: as §1, §2, §3
In the next data set the test system is HCT-116. As to the kind of experiment: NCI screening panel, growth %. The class given is cell-based, human. As to conditions: Colon. On the procedure:
as §1, §2, §3

The next data set concerns RXF 393. As to the kind of experiment: NCI screening panel, growth %. Format: cell-based, human. To be noted: Renal. On the procedure: as §1, §2, §3
In another data set the test system is OVCAR-3. As to the kind of experiment: NCI screening panel, growth %. Format: cell-based, human. To be noted: Ovarian. On the procedure: as §1, §2, §3
The next data set concerns HOP-92. The data set is described as follows: NCI screening panel, growth %. The class given is cell-based, human. To be noted: NSCLC. On the procedure:
as §1, §2, §3

The test system of another data set is HCT-15. The data set is described as follows: NCI screening panel, growth %. Format: cell-based, human. To be noted: Colon. On the procedure:
as §1, §2, §3

Another data set has as its system IGROV1. As to the kind of experiment: NCI screening panel, growth %. Format: cell-based, human. As to conditions: Ovarian. On the procedure: as §1, §2, §3
The test system of a further data set is UACC-257. As to the kind of experiment: NCI screening panel, growth %. The class given is cell-based, human. To be noted: Melanoma. On the procedure:
as §1, §2, §3

The test system of the next data set is NCI-H460. As to the kind of experiment: NCI screening panel, growth %. The class given is cell-based, human. As to conditions: NSCLC. On the procedure: as §1, §2, §3
The test system of the next data set is SN12C. As to the kind of experiment: NCI screening panel, growth %. As to conditions: Renal. The class given is cell-based, human. On the procedure: as §1, §2, §3
Another data set concerns HCC827. The data set is described as follows: Comparison with 1st generation inhibitors against a lung cancer cell line (HCC827). The class given is cell-based. To be noted: Homo sapiens, read-out: Biochemical IC50.
Data set [1] has as its target T1, EPHA6 (Homo sapiens, UniProt Q9UF33).
T1 sequence (Q9UF33 23-1036): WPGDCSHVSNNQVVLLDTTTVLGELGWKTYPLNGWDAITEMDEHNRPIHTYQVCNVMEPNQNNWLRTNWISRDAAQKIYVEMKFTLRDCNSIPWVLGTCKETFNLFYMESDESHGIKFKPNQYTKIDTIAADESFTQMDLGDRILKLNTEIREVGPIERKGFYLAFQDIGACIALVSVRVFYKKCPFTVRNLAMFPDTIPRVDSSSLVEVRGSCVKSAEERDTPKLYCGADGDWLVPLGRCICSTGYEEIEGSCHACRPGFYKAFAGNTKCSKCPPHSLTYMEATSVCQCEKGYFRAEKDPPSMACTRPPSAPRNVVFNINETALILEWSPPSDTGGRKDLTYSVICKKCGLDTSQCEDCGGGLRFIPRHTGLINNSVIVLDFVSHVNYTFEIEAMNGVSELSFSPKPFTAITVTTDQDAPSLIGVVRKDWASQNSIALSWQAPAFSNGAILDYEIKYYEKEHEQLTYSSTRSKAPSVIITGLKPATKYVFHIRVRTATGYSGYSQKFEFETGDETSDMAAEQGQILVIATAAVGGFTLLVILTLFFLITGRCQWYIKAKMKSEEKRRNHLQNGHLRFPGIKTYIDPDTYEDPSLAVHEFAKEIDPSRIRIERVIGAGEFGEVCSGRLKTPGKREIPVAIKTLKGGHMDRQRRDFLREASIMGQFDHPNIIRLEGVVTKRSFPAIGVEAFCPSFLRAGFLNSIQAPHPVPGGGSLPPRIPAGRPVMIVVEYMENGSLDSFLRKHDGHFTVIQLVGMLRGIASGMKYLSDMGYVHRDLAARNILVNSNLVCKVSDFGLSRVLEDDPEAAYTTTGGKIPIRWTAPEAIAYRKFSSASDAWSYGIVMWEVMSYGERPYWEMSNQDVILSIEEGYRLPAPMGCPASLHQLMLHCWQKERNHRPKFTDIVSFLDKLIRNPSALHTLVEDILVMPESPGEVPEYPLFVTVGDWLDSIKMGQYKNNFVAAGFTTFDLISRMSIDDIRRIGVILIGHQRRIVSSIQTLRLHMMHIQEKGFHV
The data set is described as follows: Kinome screen at 300 nM (qPCR competition binding). On the set-up: purchased DiscoveRx; host or cells: E. coli BL21-derived (T7 phage) or HEK-293. As to conditions: result in words.

In data set [2] the target is T1, EPHA6. The data set is described as follows: Binding constants (Kd) for EPHA6, kinase competition binding with qPCR readout.
Data set [3] is described as follows: Brain and plasma concentrations after oral gavage in rat, sampling to 4 hours (Table 4). As to conditions: Table 4 (4 hours); for Kp at 4 h: brain/plasma, po, 50 mg/kg. Format: in vivo.
[4] abbreviates: male, Sprague-Dawley (SD), brain tissue, PO 50 mg/kg.

For the compound `Fc1ccc(Nc2ncnc3cc(OCCOC(F)F)c(OCCOC(F)F)cc23)c(F)c1Cl` [Compound 2D•HCl, N-(3-chloro-2,4-difluoro-phenyl)-6,7-bis[2-(difluoromethoxy)ethoxy]quinazolin-4-amine], the Growth % in the data set with KM12 is listed as 85.84%; in the data set on PC-3, 65.70%; with HCT-116, 81.03%; in the data set with RXF 393 it was 37.95%; in the data set with OVCAR-3, 60.72%; in the data set on HOP-92, 39.43%. For the same compound, the Growth % is 55.49% in the data set on HCT-15; 6.79% with IGROV1; 87.43% in the data set with UACC-257; 85.74% with NCI-H460; 59.26% with SN12C. Besides, in the data set on HCC827, the IC50 turned out to be 17 nM. For the same compound, the “selectivity over erlotinib for the ephrin receptor kinase, EPHA6” value on EPHA6 [1] is “did show selectivity over erlotinib”. Binding at EPHA6 [2] was put at a Kd of 2.5 nM. In addition, in [3] (brain tissue, PO 50 mg/kg), the AUClast is 25272 ng·h/g. In data set [3] (setting [4]), this compound gave a Cmax of 8040 ng/g. In addition, the Tmax in data set [3] (setting [4]) is 4 h. The Kp at 4 h in data set [3] (male, Sprague-Dawley (SD), read-out: AUCLast Ratio (Brain/Plasma)) came out at 2.05; in data set [3] (male, Sprague-Dawley (SD), read-out: Cmax Ratio (Brain/Plasma)), 2.01.
